{"source": "paper PMC9570995", "about": "“Design, Synthesis, and Biological Evaluation of Novel Dihydropyridine and Pyridine Analogs as Potent Human Tissue Nonspecific Alkaline Phosphatase Inhibitors with Anticancer Activity: ROS and DNA Damage-Induced Apoptosis” (Molecules, 2022)", "format_in_all_cases": "cell-based", "key": {"normal BHK-21 cells": {"system": "normal BHK-21 cells", "assay": "MTT assay on normal cells", "conditions": "Mesocricetus auratus, rapidly growing non-cancerous cells"}, "HeLa cells": {"system": "HeLa cells", "assay": "Fluorescence microscopy of cytotoxic and pro-apoptotic effect (PI and DAPI staining)", "source_text": "Change in the cellular morphology, initially characterized by cell shrinkage, chromatin condensation, and degradation of the nuclear and plasma membranes, was mostly observed in the programmed cell death. The propidium iodide (PI) staining agent is a fluorescent molecule that penetrates the cancerous cells through ruptured membranes and binds with DNA. Similarly, the subsequent image offers red nuclei contrary to the dark background that indicates the counts of dead cells. On the other hand, viable cells have an intact cell membrane that resists the penetration of the staining agent (PI). Herein, the anticancer potential of the highly functionalized small dihydropyridine scaffold 4d was noticed through the apoptosis induction pathway based on various mechanisms. […] The detachment of cells and appearance of yellow intense fluorescence images on the dark background specify the distribution of PI into the dying cells in a dose-reliant mode.\nThe apoptotic feature, particularly the condensation of nuclear material, was also observed through the fluorescence microscopic evaluation of compound 4d-treated HeLa cells using 4′,6-diamidino-2-phenylindole (DAPI) as a staining agent. […] The fluorescence intensity enhances many folds upon binding with DNA. The extent of damage in the compound-treated cells was easily measured through an increase in the fluorescence emission intensity. […]"}, "MCF-7 cells": {"system": "MCF-7 cells", "assay": "Cell cycle analysis by flow cytometry (PI)", "conditions": "24 h, IC50 and 2 × IC50", "source_text": "The progression of the cell cycle is started by a cascade of intracellular signaling pathways to drive progression from the G0 phase to the G1 phase. The mammalian cell cycle involves an overexpression of D-type cyclins during the progression from the G0/G1 to the S-phase and eventually contributes to the development of cancer. Progression is controlled by D-type cyclins after binding with cyclin-dependent kinases (CDKs) and negatively controlled by binding to CDK inhibitors. CDK4/6 is involved in the G1/S transition of the cell cycle and has an important role in breast cancer. Retinoblastoma tumor suppressor protein (pRb) is deactivated through a CDK4/6-mediated phosphorylation reaction. In fact, cyclin D1/CDK4/6 is a mandatory controller of pRb phosphorylation. This phosphorylation deactivates the pRb that leads to cell proliferation.\nPI was used as a fluorescent probe by flow cytometry through small modifications in a published method. The difference in DNA content between the G0/G1, S (synthesis), and G2/M phases can be compared with a control sample. The assay was conducted by seeding 3 × 10^5 cells/well and incubating them for 24 h in a CO2 incubator at 37 °C. […] After harvesting the cells as directed, these cells were centrifuged at 3000 rpm for 5 min and washed with sterile PBS. […] The obtained results were analyzed by using the BD Accuri^TM C6 and GraphPad Prism 5.01 software."}}, "data": [{"smiles": "N#CC1=C(N)N(Cc2ccccc2)C(N)=C(C#N)C1c1ccc2ccccc2c1", "note": "[Compound 4d, 2,6-Diamino-1-benzyl-4-(naphthalen-2-yl)-1,4-dihydropyridine-3,5-dicarbonitrile]", "values": [{"measurement": "IC50", "setting": "normal BHK-21 cells", "result": "71.1 ± 3.18", "unit": "µM"}, {"measurement": "IC50", "setting": "HeLa cells; Homo sapiens, read-out: IC50 (cytotoxic potential, fluorescence microscopy with PI staining)", "result": 28.3, "unit": "µM"}, {"measurement": "morphological change of treated cells (DAPI staining)", "setting": "HeLa cells; IC50 and 2 × IC50", "result": "cellular shrinkage and nuclear condensation in a dose-dependent manner"}, {"measurement": "phase of cell cycle arrest", "setting": "MCF-7 cells", "result": "G0/G1 phase"}]}]}
